These results are taken from patent US6514942B1, “Methods and compositions for stimulating T-lymphocytes” (The Board of Regents, The University of Texas System, priority 1995, dated 2003).

“Also recorded” adds a separate entry of the source.

One experiment deals with T1, HLA-A2 of T2 cells (Homo sapiens, UniProt P04439, D140Y/D185E/D98H/E176V/E277Q/G131W/G231S/I119V/I121R/I166T/I218V/L300P/L318F/N151K/N90K/P208A/P217A/Q86G/Q94H/R138H/R169H/T345S).
T1 construct: cell surface expression of HLA-A2 is lower (30-40%) than in normal LBL lines transfected with HLA-A2; endogenous in cells; host or cells: T2 (transport deletion mutant) human lymphoblastoid cells, obtained from Dr. Peter Creswell
The experiment can be described thus: Reactivity of MA2.1 mAb with T2 cells after culture with peptide (immunofluorescence, FL1). Format: cell-based. The note with it: peptide 50 μg/ml, overnight culture in IMDM-FCS. The procedure:
FIG. 5A. Effects of HER-2 peptides on reactivity of MA2.1 mAb with T2 cells. Fluorescence analysis and determination of FL1 were performed as described (Stauss et al., 1992). Peptides were added to T2 cells at 50 μg/ml (final concentration). After overnight culture, in IMDM-FCS, cells were washed and the levels of HLA-A2 expression were determined using HLA-A2 specific mAb.
mAbs to CD3 (OKT3-FITC), CD4 (OKT4-FITC) and CD8 (OKT8-FITC) were obtained from Ortho Diagnostic (Ortho, Raritan, N.J.), mAb W6/32 (anti-HLA, -A, -B, -C) from Dako (Dako-Dakopatts, Denmark); HLA-A2 reacting mAb BB7.2 and MA2.1 from ATCC. Immunofluorescence studies were performed as described in Example 1.
To determine whether these peptides and longer analogs affect HLA-A2 conformation as an indication of HLA-A2 binding, the effects of HER-2 peptides on the reactivity of conformationally dependent mAb MA2.1 and BB.7.2 were examined with HLA-A2 of T2 cells. The human cell line T2 has a defect affecting endogenous peptide loading of MHC class I molecules. As a consequence, cell surface expression of HLA-A2 is lower (30-40%) than in normal LBL lines transfected with HLA-A2 (e.g., C1R) but the reactivity of MA2.1 and BB.7.2 mAb is increased when certain HLA-A2 binding peptides are added to the culture medium (Anderson et al., 1993). Although most human MHC class I molecules cannot be induced at the low temperatures used for their murine counterparts because of fundamental structural differences between human and mouse class I (Anderson et al., 1993), the fact that they express few endogenous (mainly signal) peptides (Zweerink et al., 1993) increases the sensitivity of detection of peptide-HLA-A2 interaction.
Turning to “DLGMGAAKGL [Peptide D99, decapeptide HER-2:1089-1098]”, the “FL1 of T2 cells stained with MA2.1 mAb” value was “slight increase in FL1”.

Take “RLLYQGCQVV [Peptide D114, HER-2:47-56(48H→L) analog]”: the “FL1 of T2 cells stained with MA2.1 mAb” value is recorded as “increased FL1 even further; also recorded: higher increase in reactivity of MA2.1 mAb with HLA-A2 than D96/D97”.

Take “EIWTHSTKV [Peptide E39, reference compound]”: the “FL1 of T2 cells stained with MA2.1 mAb” value is given as “moderate increase in FL1”.

Regarding “QLQVFETLEEI [Peptide D122, HER-2:396-406]”, the “FL1 of T2 cells stained with MA2.1 mAb” value is “increased the FL1 only slightly”.

As to “RIAWARTEL [Peptide E37, reference compound]”, the “FL1 of T2 cells stained with MA2.1 mAb” value was “failed to affect MA2.1 epitope expression”.

In the case of “LLSLALMLL [Peptide E41, reference compound]”, the “FL1 of T2 cells stained with MA2.1 mAb” value is recorded as “failed to induce an increase in FL1”.

In the case of “NLGPWIQQV [Peptide E38, reference compound]”, the “FL1 of T2 cells stained with MA2.1 mAb” value is on record as “very high increase in FL1”.

Consider “LQVFETLEEITGYL [Peptide D120, HER-2:397-410]”, for which the “FL1 of T2 cells stained with MA2.1 mAb” value is listed as “increased the FL1 only slightly”.

Consider “SLALMLLWL [Peptide E40, reference compound]”, for which the “FL1 of T2 cells stained with MA2.1 mAb” value is on record as “failed to induce an increase in FL1”.

With “LVSEFSRMARDPQ [Peptide B69, HER-2:972-984]”, the “FL1 of T2 cells stained with MA2.1 mAb” value was “failed to significantly increase FL1”.

Turning to “ELVSEFSKV [Peptide C83, C85 analog with strengthened P9 and P8]”, the “FL1 of T2 cells stained with MA2.1 mAb” value is listed as “did not increase further the FL1”.

The experiment is the same for the next values; noted with them: study repeated with peptides dissolved in DMSO.
As to “RLLYQGCQVV [Peptide D114, HER-2:47-56(48H→L) analog]”, the “reactivity of MA2.1 mAb with HLA-A2” value is on record as “unable to increase reactivity”.

Another experiment concerns C1R:A2 cells. The experiment can be described thus: Ag specificity of the 41.CD8+ CTL line on peptide-pulsed targets. Format: cell-based, human. The note with it: peptide-pulsed C1R:A2, E:T 10:1. On the procedure: FIG. 2A. Ag specificity of the 41.CD8^+ CTL line. C1R:A2 cells were pre-pulsed with either HER-2 peptides or control MUC-1 peptides before being incubated with effectors. The effector to target ratio was 10:1. C1R:A1 and C1R:A3 targets were pre-pulsed with the same peptides in the same conditions as C1R:A2 cells. Results for C1R:A1 and C1R:A3 show the difference between specific lysis of targets preincubated with peptides and control C1R:A1 and C1R:A3 targets. Specific lysis of control C1R:A1 and C1R:A3 cells was less than 10% at the same E:T ratio. Shown in FIG. 2A are results after 4 hrs' incubation.
(§1) Tumor cells and fibroblasts were labeled with 200 μCi of ^51Cr (Na^51CrO4; Amersham, Arlington Heights, Ill.) for 90 min at 37° C. (Ioannides et al., 1991). Lymphoblastoid cells and HLA-A2 transfectants were labeled overnight in RPMI-FCS, then washed three times and incubated with effector cells in RPMI-FCS in an incubator with 5%. CO2 (Bednarek et al., 1991; Gammon et al., 1992). When peptide recognition was determined, targets were incubated with 25 μM of peptides overnight during ^51Cr labeling or with 10 μM peptide for 2 h at 37° C. in RPMI-FCS then washed three times before being incubated with effector cells. Separate controls for spontaneous and total lysis were made for each peptide-pulsed target (Ioannides et al., 1991; Bednarek et al., 1991; Gammon et al., 1992). After 4-5 h, 100 μl of supernatant was collected and counted. To determine maximum lysis in 20-h assays, plates were left undisturbed in the incubator and the supernatant was collected after overnight incubation. For cold target inhibition studies, C1R:A2 cells were preincubated with HER-2 or control peptides overnight, then washed and admixed with ^51Cr-labeled targets at 2:1 and 6:1 (cold:hot targets) ratios. Percentage lysis was calculated from the formula: 100×[(E−S)/(T−S)], where E is experimental release, S is release in the absence of CTL, and T is release in 2 M HCl.
These cultures were propagated and expanded by periodic cycles of restimulation with peptide-pulsed fresh autologous PBMC as antigen-presenting cells. After the fourth stimulation cells were gradually adapted to growth in RPMI-FCS by replacing 25% of the culture medium every 3 days with RPMI-FCS over a period of 2 weeks. CD3^+CD8^+CD4^− cells were isolated from bulk CTL cultures by positive selection on anti-CD8 mAb-coated culture flasks (AIS Micro CELLector, Applied Immune Sciences, Menlo Park, Calif.) as described (Letessier et al., 1991). Isolated CD8^+ cells were restimulated with HER-2 peptide-pulsed PBMC, either autologous or in some instances allogeneic that matched only HLA-A2 with the responding cells. […]
On to “SLADPAHGV [Peptide D132, control analog of Muc-1 core peptide with introduced P2 anchor, reference compound]”, for which the “recognition by 41.CD8+ CTL line” value is on record as “at a much lesser extent”.

“GLTSAPDTRV [Peptide D125, control analog of Muc-1 core peptide (Muc-1:8-17) with introduced HLA-A2 anchors, reference compound]”: the “recognition by 41.CD8+ CTL line” value is “at a much lesser extent”.

The next experiment relates to OVA-16 (HLA-A2+, HER-2high) ovarian tumor. The experiment can be described thus: Cold target inhibition of OVA-16 lysis by 41.CD8+ CTL with peptide-pulsed C1R:A2 cells. The note with it: cold:hot 2:1, E:T 10:1, 4- and 20-h assays. Format: cell-based, human. The procedure:
FIG. 4A. Target specificity of the 41.CD8^+ CTL were tested for the ability to lyse 5^1Cr-labeled OVA-16 at an E:T ratio of 10:1. C1R:A2 cells (A2.1) were incubated with synthetic peptides (D125, C43, C85), washed, and used in cold target inhibition studies at a cold:hot ratio of 2:1. Cytotoxicity studies were performed for 5 hr. Results represent the mean of three determinations. The variability between samples was less than 10%. The differences between determination are statistically significant (P<0.03) as determined by Student's t test. Percentage inhibition is indicated in parentheses.
FIG. 4B. Target specificity of the 41.CD8^+ CTL were tested for the ability to lyse ^51Cr-labeled OVA-16 at an E:T ratio of 10:1. C1R:A2 cells (A2.1) were incubated with synthetic peptides (D125, C43, C85), washed, and used in cold target inhibition studies at a cold:hot ratio of 2:1. Cytotoxicity studies were performed for 20 hr. Results represent the mean of three determinations. The variability between samples was less than 10%. The differences between determination are statistically significant (P<0.03) as determined by Student's t test. Percentage inhibition is indicated in parentheses.
as §1
To confirm that the 41.CD8^+ CTL line recognizes epitopes on HER-2^high tumors contained on peptides used for stimulation, cold target inhibition studies were performed. […]
Turning to “GLTSAPDTRV [Peptide D125, control analog of Muc-1 core peptide (Muc-1:8-17) with introduced HLA-A2 anchors, reference compound]”, the “inhibition of tumor lysis by peptide-pulsed cold targets” value is reported as “inability of C1R:A2 cells alone or pulsed with D125 to mediate the same inhibition”.

The next experiment has as its target T2, HLA-A2 on indicator T2 cells (Homo sapiens, UniProt P04439, D140Y/D185E/D98H/E176V/E277Q/G131W/G231S/I119V/I121R/I166T/I218V/L300P/L318F/N151K/N90K/P208A/P217A/Q86G/Q94H/R138H/R169H/T345S).
T2 construct: cell surface expression of HLA-A2 is lower (30-40%) than in normal LBL lines transfected with HLA-A2; endogenous in cells; host or cells: T2 (transport deletion mutant) human lymphoblastoid cells, obtained from Dr. Peter Creswell
The experiment can be described thus: Stabilization of HLA-A2 expression on indicator line T2. Type of experiment: cell-based. The note with it: indicator T2 cells. The text has this: Since HER-2 is a self-antigen, during thymic selection, a number of T-cells carrying receptors with high affinity for the HLA-peptide complex are silenced either by elimination ro tolerization. A pre-condition for induction of a high affinity TCR-(MHC+peptide) interactions, is a stable (MHC+peptide) complex. […] However, stabilization of HLA-Class I binding by exogenously added peptide is dependent on introduction of dominant anchors in positions P2 and P9 which are not recognized by TCR.
Peptide D113, […] (SEQ ID NO:17), is the natural nonapeptide […].
Turning to “RLLYQGCQVV [Peptide D114, HER-2:47-56(48H→L) analog]”, the “stabilization of HLA-A2” value is “little improvement on stabilization of HLA-A2”.

The subject of the next experiment is three HLA-A2+ CTL lines. Nature of the experiment: Recognition of nonapeptides by CTLs associated with and lysing ovarian tumors. Type of experiment: cell-based, human. The note with it: of three HLA-A2+ CTL lines.
As to QLMPYGCLL [Peptide E71, HER-2:798-806], the “CTL lines recognizing the peptide” value is on record as 2/3.

VLVKSPNHV [Peptide E89, HER-2:851-859]: the “CTL lines recognizing the peptide” value is on record as 2/3.

PLQPEQLQV [Peptide E77, HER-2:391-399]: the “CTL lines recognizing the peptide” value is on record as 2/3.

Staying with this experiment, now noted: three HLA-A2+ CTL lines.
QLMPYGCLL [Peptide E71, HER-2:798-806]: the “designation based on the levels of lysis induced” value (shortened to “designation based on the levels”) is “high”.

For the sequence VLVKSPNHV [Peptide E89, HER-2:851-859], the “designation based on the levels” value is reported as “high”.

Turning to PLQPEQLQV [Peptide E77, HER-2:391-399], the “designation based on the levels” value is “moderate”.

Another experiment deals with C1R:A2 cells. Nature of the experiment: In vitro induction of peptide-reactive CTL from PBMC, 51Cr release on peptide-pulsed C1R:A2. Format: cell-based, human. The note with it: PBMC stimulated with the peptide.
Regarding “RLLYQGCQVV [Peptide D114, HER-2:47-56(48H→L) analog]”, the “Ag specificity of CTL response induced by the peptide” value is recorded as “lacked Ag specificity”.

The next experiment has as its system CTL-34. Nature of the experiment: Recognition of HER-2 peptides by ovarian tumor associated CTL (lysis of peptide-sensitized targets). Type of experiment: cell-based, human.
Conditions: not given
Take QLMPYGCLL [Peptide E71, HER-2:798-806]: the “% of C85 (target lysis by CTL in the presence of peptide as % of positive control C85)” value (shortened to “% of C85”) was 0.600 % of C85.

CLTSTVQLV [Peptide E90, HER-2:788-796]: the “% of C85” value was 1.149 % of C85.

Regarding VLVKSPNHV [Peptide E89, HER-2:851-859], the “% of C85” value is listed as 1.149 % of C85.

Consider PLQPEQLQV [Peptide E77, HER-2:391-399], for which the “% of C85” value is 0.300 % of C85.
